Common to all, as to experiment: relative viability (nuclei count vs DMSO), 5 days (fraction); higher = more cells survive
Compound in experiment [1]: CCOc1cc2ncc(C#N)c(Nc3ccc(OCc4ccccn4)c(Cl)c3)c2cc1NC(=O)/C=C/CN(C)C [Neratinib] + COc1cccc2cc(-c3nc([C@H]4CC[C@H](C(=O)O)CC4)n4ncnc(N)c34)[nH]c12 [OSI-027] (partner 0.5 µM)
Put shortly: (§1)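 The day after seeding in 1536-well plates, lung cancer cell lines were treated by pin tool with a single drug, or with a fixed anchor-drug dose together with five library-drug doses (not always all listed) in √10 steps. After 5 days, a combined fix-and-stain solution (final 0.05% Triton X-100, 1% formaldehyde, 1 ug/ml Hoechst) was added. Nuclei counted on 4× images gave relative viability as treated counts over vehicle counts, reported as the median of duplicate plates.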

Compound in experiment [2]: CCOc1cc2ncc(C#N)c(Nc3ccc(OCc4ccccn4)c(Cl)c3)c2cc1NC(=O)/C=C/CN(C)C [Neratinib] + CC(=O)Nc1cccc(-n2c(=O)n(C3CC3)c(=O)c3c(Nc4ccc(I)cc4F)n(C)c(=O)c(C)c32)c1 [Trametinib] (partner 0.02 µM)
Put shortly:
as §1

Compound in experiment [3]: CCOc1cc2ncc(C#N)c(Nc3ccc(OCc4ccccn4)c(Cl)c3)c2cc1NC(=O)/C=C/CN(C)C [Neratinib] + C[C@]1(O)C[C@@H](c2nc(-c3ccc4ccc(-c5ccccc5)nc4c3)c3c(N)nccn32)C1 [Linsitinib] (partner 1 µM)
Put shortly:
as §1

Compound in experiment [4]: CCOc1cc2ncc(C#N)c(Nc3ccc(OCc4ccccn4)c(Cl)c3)c2cc1NC(=O)/C=C/CN(C)C [Neratinib] + CS(=O)(=O)CCNCc1ccc(-c2ccc3ncnc(Nc4ccc(OCc5cccc(F)c5)c(Cl)c4)c3c2)o1 [Lapatinib] (partner 2 µM)
In outline:
as §1

Take NCI-H2126: the relative viability in experiment [1] (first compound 0.01 µM) amounted to 0.697; in experiment [1] (first compound 0.03162 µM) it was 0.688; in experiment [1] (first compound 0.1 µM), 0.69; in experiment [1] (first compound 0.3162 µM), 0.649; in experiment [1] (first compound 1 µM), 0.447; in experiment [2] (first compound 0.01 µM) it was 0.646. Besides, the relative viability in experiment [2] (first compound 0.03162 µM) is 0.552; in experiment [2] (first compound 0.1 µM), 0.543; in experiment [2] (first compound 0.3162 µM), 0.497; in experiment [2] (first compound 1 µM) it was 0.36; in experiment [3] (first compound 0.01 µM), 0.693; in experiment [3] (first compound 0.03162 µM), 0.719. In addition, the relative viability in experiment [3] (first compound 0.1 µM) is 0.581; in experiment [3] (first compound 0.3162 µM), 0.654; in experiment [3] (first compound 1 µM) it was 0.38; in experiment [4] (first compound 0.01 µM) it was 0.79; in experiment [4] (first compound 0.1 µM), 0.735; in experiment [4] (first compound 0.3162 µM), 0.754. The relative viability in experiment [4] (first compound 1 µM) amounted to 0.672.

With NCI-H2228, the relative viability in experiment [1] (first compound 0.01 µM) is 0.536; in experiment [1] (first compound 0.1 µM), 0.662; in experiment [1] (first compound 0.3162 µM), 0.526; in experiment [1] (first compound 1 µM) it was 0.142; in experiment [2] (first compound 0.01 µM), 0.457; in experiment [2] (first compound 0.03162 µM), 0.93. Further, the relative viability in experiment [2] (first compound 0.1 µM) amounted to 0.359; in experiment [2] (first compound 0.3162 µM), 0.58; in experiment [2] (first compound 1 µM), 0.132; in experiment [3] (first compound 0.01 µM), 0.88; in experiment [3] (first compound 0.03162 µM), 0.526; in experiment [3] (first compound 0.1 µM) it was 0.388. Further, the relative viability in experiment [3] (first compound 0.3162 µM) is 0.582; in experiment [3] (first compound 1 µM), 0.421; in experiment [4] (first compound 0.01 µM) it was 1.03; in experiment [4] (first compound 0.03162 µM), 1.26; in experiment [4] (first compound 0.1 µM) it was 1.01; in experiment [4] (first compound 0.3162 µM), 0.924. Moreover, in experiment [4] (first compound 1 µM), the relative viability came out at 0.259.

As for NCI-H2347, the relative viability in experiment [1] (first compound 0.01 µM) is 0.453; in experiment [1] (first compound 0.03162 µM) it was 0.573; in experiment [1] (first compound 0.3162 µM), 0.434; in experiment [1] (first compound 1 µM), 0.32; in experiment [2] (first compound 0.01 µM), 0.264; in experiment [2] (first compound 0.03162 µM), 0.317. Besides, the relative viability came to 0.262 in experiment [2] (first compound 0.1 µM); 0.248 in experiment [2] (first compound 0.3162 µM); 0.266 in experiment [2] (first compound 1 µM); 0.989 in experiment [3] (first compound 0.01 µM); 0.988 in experiment [3] (first compound 0.03162 µM); 0.95 in experiment [3] (first compound 0.1 µM). In addition, the relative viability in experiment [3] (first compound 0.3162 µM) was determined as 0.992; in experiment [3] (first compound 1 µM), 0.974; in experiment [4] (first compound 0.01 µM) it was 0.812; in experiment [4] (first compound 0.03162 µM) it was 1.04; in experiment [4] (first compound 0.1 µM), 0.94; in experiment [4] (first compound 0.3162 µM), 0.952. In addition, in experiment [4] (first compound 1 µM), the relative viability is 0.83.

For NCI-H2405, the relative viability in experiment [1] (first compound 0.01 µM) worked out at 0.666; in experiment [1] (first compound 0.03162 µM) it was 0.653; in experiment [1] (first compound 0.1 µM), 0.566; in experiment [1] (first compound 0.3162 µM), 0.69; in experiment [1] (first compound 1 µM), 0.496; in experiment [2] (first compound 0.01 µM) it was 0.682. Besides, the relative viability is 0.612 in experiment [2] (first compound 0.03162 µM); 0.465 in experiment [2] (first compound 0.3162 µM); 0.513 in experiment [2] (first compound 1 µM); 0.945 in experiment [3] (first compound 0.01 µM); 1.03 in experiment [3] (first compound 0.03162 µM); 0.836 in experiment [3] (first compound 0.1 µM). Moreover, the relative viability in experiment [3] (first compound 0.3162 µM) came out at 0.792; in experiment [3] (first compound 1 µM) it was 0.469; in experiment [4] (first compound 0.01 µM), 1.26; in experiment [4] (first compound 0.03162 µM), 1.04; in experiment [4] (first compound 0.1 µM), 1.04; in experiment [4] (first compound 0.3162 µM) it was 1.16. Further, in experiment [4] (first compound 1 µM), the relative viability is 0.804.

For the cell line NCI-H3122, the relative viability in experiment [1] (first compound 0.01 µM) turned out to be 1.03; in experiment [1] (first compound 0.03162 µM) it was 0.987; in experiment [1] (first compound 0.1 µM) it was 0.9; in experiment [1] (first compound 0.3162 µM), 0.9; in experiment [1] (first compound 1 µM) it was 0.154; in experiment [2] (first compound 0.01 µM), 0.29. Also, the relative viability in experiment [2] (first compound 0.03162 µM) was 0.214; in experiment [2] (first compound 0.1 µM) it was 0.2; in experiment [2] (first compound 0.3162 µM), 0.227; in experiment [2] (first compound 1 µM), 0.175; in experiment [3] (first compound 0.01 µM), 1.05; in experiment [3] (first compound 0.03162 µM), 0.993. The relative viability stood at 1.04 in experiment [3] (first compound 0.1 µM); 1.02 in experiment [3] (first compound 0.3162 µM); 0.256 in experiment [3] (first compound 1 µM); 1.05 in experiment [4] (first compound 0.01 µM); 1.05 in experiment [4] (first compound 0.03162 µM); 0.884 in experiment [4] (first compound 0.1 µM). Also, the values for the relative viability in experiment [4] (first compound 0.3162 µM) and in experiment [4] (first compound 1 µM) were 1.03 and 0.601, respectively.

Regarding PC-3 [JPC-3], the relative viability was determined as 0.814 in experiment [1] (first compound 0.01 µM); 0.749 in experiment [1] (first compound 0.03162 µM); 0.662 in experiment [1] (first compound 0.1 µM); 0.544 in experiment [1] (first compound 0.3162 µM); 0.319 in experiment [1] (first compound 1 µM); 0.745 in experiment [2] (first compound 0.01 µM). The relative viability in experiment [2] (first compound 0.03162 µM) was found to be 0.831; in experiment [2] (first compound 0.1 µM), 0.629; in experiment [2] (first compound 0.3162 µM) it was 0.427; in experiment [2] (first compound 1 µM), 0.435; in experiment [3] (first compound 0.01 µM) it was 1.03; in experiment [3] (first compound 0.03162 µM), 1.03. Moreover, the relative viability in experiment [3] (first compound 0.1 µM) was 0.894; in experiment [3] (first compound 1 µM) it was 0.348; in experiment [4] (first compound 0.01 µM) it was 0.457; in experiment [4] (first compound 0.03162 µM) it was 0.433; in experiment [4] (first compound 0.1 µM) it was 0.455; in experiment [4] (first compound 0.3162 µM), 0.485. In experiment [4] (first compound 1 µM), the relative viability stood at 0.373.

The record behind these values is the supplement of paper PMC10307832.
